US5493007A, “Platelet aggregation inhibitors having high specificity for GPIIBIIIA” (Genentech, Inc., priority 1994, dated 1996)
“And” between values parts separate entries of the source, which are not always exact repeats. Equal entries are not always repeated. Where a SMILES comes first, the peptide text is derived from it. Bridges are numbered along the chain shown (N, C = ends). [ ]: non-standard residue; d: D form. Aad = N[C@@H](CCCC(=O)O)C(=O)O; Pen = CC(C)(S)[C@H](N)C(=O)O; Orn = NCCC[C@H](N)C(=O)O

Assays:
Format in all cases: in vivo
Beagle dogs = assay: Bleeding time, dog model; details: for bleeding time during the infusion: dose printed for 7/46: bolus 125 μg/kg plus 3 μg/kg/min, 7/1 value is a mean
Description: (§1) Beagle dogs were premedicated with atropine (3 mg subcutaneously) and anesthetized with intravenous sodium pentobarbital solution (65 mg/ml, to effect, induction and maintenance). The dogs were placed in dorsal recumbency on heating pads, intubated, and placed on oxygen-room air mixture (free breathing). A pulse oximeter was attached and heart rate and oxygen saturation monitored. An indwelling catheter was placed in one cephalic vein through which normal saline drip (for patency) and maintenance anesthetic doses were administered, and in one saphenous vein through which test or control compound was bolused or infused.
At several timepoints bleeding times were measured. The forearm of the dog was closely shaven. A Surgicutt® automatic bleeding time device was employed to make an approximate 1 cm clean incision through the skin. Blood was blotted with the edge of a Whatman's #4 filter paper every 15 seconds. Bleeding time was measured as the time from incision to the last time blood was absorbed by the filter paper.

[1] = system: platelet rich plasma (PRP); assay: Ex vivo platelet aggregation, dog model
Description: as §1
At each proscribed time point a 5 ml whole blood sample was withdrawn via jugular venipuncture for ex vivo platelet aggregation and complete blood cell count. Manual pressure was applied to the venipuncture site following blood withdrawal to minimize hematoma formation.
Approximately one ml of blood withdrawn at each timepoint was placed on EDTA (purple-top vacutainer) and used to measure the complete blood cell count on a Cell-Dyne 1500 automated hematology analyzer. 3.6 ml of blood withdrawn at each timepoint was placed on a 3.8% sodium citrate (1 part to 9 parts blood) and centrifuged at 12,000 rpm for 4 seconds in an Eppendorf microcentrifuge. The resultant platelet rich plasma (PRP) was pipetted off for use in ex vivo aggregation procedures.
Platelet aggregation was measured in a Payton dual-channel aggregometer. The equipment was calibrated with PRP assigned as 0% light transmission and PPP as 100% light transmission. PRP was allowed to rest at room temperature for 20 minutes following separation from whole blood. […] PRP was incubated at 37° C. in the aggregometer for approximately 5 minutes with the chart recorder on to establish a baseline. […] ADP (1 mM) was added to the PRP and the aggregation response (change in light transmission) recorded. An aliquot of the PRP was used to perform a platelet count on the Cell-Dyne 1500 automated hematology analyzer. [drawing 50] Example 7, Compound 1

[2] = system: platelet rich plasma (PRP); assay: Rabbit ex-vivo platelet aggregation (XPA), ADP-induced; details: Example 1
Description: (§2) Catheters are flushed and locked after every sample.
[…] of PRP is placed in a disposable glass cuvette with a stir bar. The cuvette is placed in the temperature regulated light path of a light transmittance aggregometer (Chrono-log) and equilibrated to a 37° C. Baseline transmittance is recorded for 30 seconds, after which […] of ADP (1 mM) is added and the change in transmittance recorded. The maximum change from baseline (dT) is noted for each sample. The extent of inhibition of XPA that is produced by an inhibitor is calculated for each animal as follows: Mean dTs are calculated for the pre and post infusion values, and then, percent inhibition is calculated as (1-dt (post)/ddt (pre))×100.

[3] = system: New Zealand White rabbits; assay: Rabbit peripheral blood flow (PBF) by observation of ear vessels
Description: as §2
For the experiments summarized in Table 1, PBF was monitored by observation of the condition of the blood vessels in the rabbits' ears, prior to and during the infusion. Normal flow is defined as ears that appear pink to red, with no visible constriction of the major blood vessels. Decreased flow applies to ears that have constricted vessels resulting in cold, pallid ears for up to 40 minutes following the start of the inhibitor infusion.

[4] = 200 μg/kg bolus plus an infusion of 4.8 μg/kg/min
[5] = 300 μg/kg bolus plus an infusion of 7.2 μg/kg/min

Row | SMILES | Rabbit % P.A. Inhibition (ex vivo) [2] | peripheral blood flow, result in words [3] | other results
1 | N=C(N)NCCC[C@@H]1NC(=O)[C@@H](Cc2ccc(O)cc2)NC(=O)CSC[C@@H](C(=O)N[C@@H](CCCN)C(N)=O)NC(=O)[C@H](CC(=O)O)NC(=O)CNC1=O [7/5, cyclo-S-acetyl-dTyr--Arg--Gly--Asp--Cys--Orn--NH2] ({CH2CO}-[dY]RGDC[Orn]-NH2; thioether N-5) | 100% |  | bleeding time, result in words (Beagle dogs; [4]): minimal prolongation of bleeding; inhibition of aggregation [1, 4]: > 90%
2 | CC1(C)SCC(=O)N[C@H](Cc2ccc(O)cc2)C(=O)N[C@@H](CCCCN)C(=O)NCC(=O)N[C@@H](CC(=O)O)C(=O)N[C@@H]1C(=O)N[C@@H](CCCNC(=N)N)C(N)=O [7/16, cyclo-S-acetyl-dTyr--Lys--Gly--Asp--Pen--Arg--NH2] ({CH2CO}-[dY]KGD[Pen]R-NH2; thioether N-5) |  | without substantial increased cutaneous bleeding time or decreased peripheral blood flow | 
3 | N=C(N)NCCC[C@H](NC(=O)[C@@H]1CSCC(=O)N[C@H](Cc2ccc(O)cc2)C(=O)N[C@@H](CCCNC(=N)N)C(=O)NCC(=O)N[C@@H](CC(=O)O)C(=O)N1)C(N)=O [7/1, cyclo-S-acetyl-dTyr--Arg--Gly--Asp--Cys--Arg--NH2] ({CH2CO}-[dY]RGDCR-NH2; thioether N-5) | 100% | no substantial increase in cutaneous bleeding time (1.17 times; dosed to 100% inhibition of platelet aggregation) or decrease in peripheral blood flow | bleeding time, preinfusion value (Beagle dogs; before infusion (baseline)): 3 min; bleeding time during the infusion (Beagle dogs): 6.25 min
4 | N=C(N)NCCC[C@H](NC(=O)[C@H](Cc1ccc(O)cc1)NC(=O)[C@@H]1CSCC(=O)N[C@H](Cc2ccc(O)cc2)C(=O)N[C@@H](CCCNC(=N)N)C(=O)NCC(=O)N[C@@H](CC(=O)O)C(=O)N1)C(N)=O [7/7, cyclo-S-acetyl-dTyr--Arg--Gly--Asp--Cys--Tyr--Arg--NH2] ({CH2CO}-[dY]RGDCYR-NH2; thioether N-5) | 98% |  | 
5 | N=C(N)NCCC[C@@H]1NC(=O)[C@@H](Cc2ccc(O)cc2)NC(=O)CSC[C@@H](C(=O)O)NC(=O)[C@H](CC(=O)O)NC(=O)CNC1=O [7/46, cyclo-S-acetyl-dTyr--Arg--Gly--Asp--Cys--OH] ({CH2CO}-[dY]RGDC-OH; thioether N-5) | 99% and 55% |  | bleeding time during the infusion (Beagle dogs): > 30 min; inhibition of ex vivo aggregation ([1]; bolus of 125 μg/kg plus an infusion of 3 μg/kg/min, throughout the infusion period): 100%
6 | N=C(N)NCCC[C@@H]1NC(=O)[C@@H](Cc2ccc(O)cc2)NC(=O)CSC[C@@H](C(=O)N[C@@H](CCC(N)=O)C(N)=O)NC(=O)[C@H](CC(=O)O)NC(=O)CNC1=O [7/27, cyclo-S-acetyl-dTyr--Arg--Gly--Asp--Cys--Gln--NH2] ({CH2CO}-[dY]RGDCQ-NH2; thioether N-5) | 72% and 99% |  | 
7 | CC1(C)SCC(=O)N[C@H](Cc2ccc(O)cc2)C(=O)N[C@@H](CCCCN)C(=O)NCC(=O)N[C@@H](CC(=O)O)C(=O)N[C@@H]1C(=O)N[C@@H](CCCCN)C(N)=O [7/17, cyclo-S-acetyl-dTyr--Lys--Gly--Asp--Pen--Lys--NH2] ({CH2CO}-[dY]KGD[Pen]K-NH2; thioether N-5) | 100% | without substantial increased cutaneous bleeding time or decreased peripheral blood flow | 
8 | N=C(N)NCCC[C@@H]1NC(=O)[C@@H](Cc2ccc(O)cc2)NC(=O)CSC[C@@H](C(=O)N[C@@H](CCCCN)C(N)=O)NC(=O)[C@H](CC(=O)O)NC(=O)CNC1=O [7/3, cyclo-S-acetyl-dTyr--Arg--Gly--Asp--Cys--Lys--NH2] ({CH2CO}-[dY]RGDCK-NH2; thioether N-5) | 97% |  | bleeding time, result in words (Beagle dogs; [5]): without prolongation of the bleeding time; inhibition of ex vivo aggregation [1, 5]: > 95%
9 | N=C(N)NCCC[C@@H]1NC(=O)[C@@H](Cc2ccc(O)cc2)NC(=O)C(CCCCN)SC[C@@H](C(=O)O)NC(=O)[C@H](CC(=O)O)NC(=O)CNC1=O (single isomer, unassigned) [9/10, cyclo-S-2-L-(6-aminocaproyl)-Lys--dTyr--Arg--Gly--Asp--Cys--OH] | 100% |  | 
10 | N=C(N)NCCC[C@@H]1NC(=O)[C@@H](Cc2ccc(O)cc2)NC(=O)CCC[C@@H](C(=O)N[C@@H](CCCCN)C(N)=O)NC(=O)[C@H](CC(=O)O)NC(=O)CNC1=O [10/20, cyclo(1-5)dTyr--Arg--Gly--Asp--L-α-aminoadipic acid-Lys--NH2] ([dY]RGD[Aad]K-NH2; lactam N-5) | 100% |  | 
